Earlier results in patent US8372452B2, “Oral herbal composition for the treatment of oral candidiasis” (Piramal Life Sciences Limited, priority 2008, dated 2013).

Test system: oral pathogens (Enterococcus faecalis, Streptococcus salivarius, Streptococcus mitis, Streptococcus mutans, Streptococcus sobrinus, Streptococcus sanguinis and …)
Conditions: literature report, Silva M L et al. 2007

(−)-cubebin
activity against oral pathogens (microorganisms): exhibited activity
